Assay results taken from the NIST ThermoML archive (doi:10.1016/j.jct.2010.04.018).

Experiment: cn = amount concentration of the nth substance listed, in mol/dm3
Settings: 101 kPa, Liquid; for speed of sound: Sing-around technique in a fixed-path interferometer; for mass density: Vibrating tube method

Oc1ccccc1O [1,2-benzenediol] + O
Settings | mass density, 283.15 K [kg/m3] | mass density, 293.15 K [kg/m3] | mass density, 298.15 K [kg/m3] | mass density, 303.15 K [kg/m3] | mass density, 313.15 K [kg/m3] | speed of sound, 283.15 K [m/s] | speed of sound, 293.15 K [m/s] | speed of sound, 298.15 K [m/s] | speed of sound, 303.15 K [m/s] | speed of sound, 313.15 K [m/s]
c1 = 0.0354 | 1000.62 | 999.093 | 997.92 | 996.509 | 993.058 | 1449.9 | 1484.1 | 1498.2 | 1510.5 | 1529.9
c1 = 0.1697 | 1003.9 | 1002.24 | 1001.01 | 999.543 | 995.992 | 1457.9 | 1490.6 | 1504 | 1515.7 | 1534.1
c1 = 0.346 | 1008.13 | 1006.3 | 1004.99 | 1003.46 | 999.774 | 1467.9 | 1498.7 | 1511.4 | 1522.2 | 1539.2
c1 = 0.4721 | 1011.09 | 1009.14 | 1007.78 | 1006.19 | 1002.41 | 1474.5 | 1504.1 | 1516.2 | 1526.6 | 1542.6
c1 = 0.5008 | 1011.78 | 1009.79 | 1008.42 | 1006.82 | 1003.02 | 1476.5 | 1505.4 | 1517.3 | 1527.5 | 1543.4
c1 = 0.6589 | 1015.4 | 1013.26 | 1011.82 | 1010.15 | 1006.23 | 1484 | 1511.8 | 1523 | 1532.7 | 1547.3
c1 = 0.7524 | 1017.53 | 1015.29 | 1013.81 | 1012.11 | 1008.12 | 1488.5 | 1515.4 | 1526.3 | 1535.5 | 1549.5

Oc1cccc(O)c1 [1,3-benzenediol] + O
Settings | mass density, 283.15 K [kg/m3] | mass density, 293.15 K [kg/m3] | mass density, 298.15 K [kg/m3] | mass density, 303.15 K [kg/m3] | mass density, 313.15 K [kg/m3] | speed of sound, 283.15 K [m/s] | speed of sound, 293.15 K [m/s] | speed of sound, 298.15 K [m/s] | speed of sound, 303.15 K [m/s] | speed of sound, 313.15 K [m/s]
c1 = 0.0479 | 1000.93 | 999.387 | 998.206 | 996.776 | 993.338 | 1449.5 | 1483.7 | 1497.8 | 1510 | 1529.5
c1 = 0.101 | 1002.08 | 1000.51 | 999.325 | 997.875 | 994.393 | 1451.5 | 1485.2 | 1499.1 | 1511.2 | 1530.3
c1 = 0.1786 | 1003.79 | 1002.17 | 1000.95 | 999.476 | 995.941 | 1454.3 | 1487.3 | 1500.9 | 1512.8 | 1531.4
c1 = 0.3402 | 1007.38 | 1005.58 | 1004.28 | 1002.77 | 999.12 | 1459.9 | 1491.6 | 1504.7 | 1515.9 | 1533.7
c1 = 0.4522 | 1009.8 | 1007.9 | 1006.56 | 1005 | 1001.29 | 1463.5 | 1494.5 | 1507.1 | 1518 | 1535.2
c1 = 0.5654 | 1012.22 | 1010.22 | 1008.84 | 1007.25 | 1003.46 | 1467.2 | 1497.3 | 1509.6 | 1520.1 | 1536.6
c1 = 0.7623 | 1016.36 | 1014.19 | 1012.74 | 1011.08 | 1007.17 | 1473.5 | 1502 | 1513.7 | 1523.7 | 1539

Oc1ccc(O)cc1 [1,4-benzenediol] + O
Settings | mass density, 283.15 K [kg/m3] | mass density, 293.15 K [kg/m3] | mass density, 298.15 K [kg/m3] | mass density, 303.15 K [kg/m3] | mass density, 313.15 K [kg/m3] | speed of sound, 283.15 K [m/s] | speed of sound, 293.15 K [m/s] | speed of sound, 298.15 K [m/s] | speed of sound, 303.15 K [m/s] | speed of sound, 313.15 K [m/s]
c1 = 0.011 | 1000 | 998.494 | 997.334 | 995.934 | 992.505 | 1448.2 | 1482.6 | 1496.9 | 1509.3 | 1529
c1 = 0.0342 | 1000.53 | 999.001 | 997.84 | 996.428 | 992.992 | 1449.2 | 1483.3 | 1497.5 | 1509.9 | 1529.4
c1 = 0.0554 | 1001.02 | 999.463 | 998.3 | 996.878 | 993.436 | 1450 | 1483.9 | 1498.1 | 1510.3 | 1529.8
c1 = 0.1035 | 1002.11 | 1000.5 | 999.338 | 997.892 | 994.437 | 1451.9 | 1485.2 | 1499.3 | 1511.5 | 1530.6
c1 = 0.201 | 1004.28 | 1002.58 | 1001.41 | 999.925 | 996.443 | 1455.5 | 1487.6 | 1501.8 | 1513.7 | 1532.2
c1 = 0.2996 | 1006.44 | 1004.65 | 1003.48 | 1001.95 | 998.439 | 1458.9 | 1489.8 | 1504.1 | 1515.7 | 1533.7
c1 = 0.4022 | 1008.64 | 1006.75 | 1005.59 | 1004.02 | 1000.49 | 1462.2 | 1492 | 1506.4 | 1517.8 | 1535.2

O [water] + Oc1ccccc1O
c2 = 0
Settings | mass density [kg/m3] | speed of sound [m/s]
283.15 K | 999.749 | –
293.15 K | 998.252 | –
313.15 K | 992.273 | 1528.8
